According to the NIST ThermoML archive (doi:10.1021/je0301040):

Assay: xn = mol fraction of the nth substance listed

FC(Cl)(Cl)Cl [trichlorofluoromethane] + FC(F)Cl
Conditions | mass density [kg/m3]
374.97 K, 3116.9 kPa, Liquid, Pycnometric method, x1 = 0.8336 | 1216.83
374.97 K, 14051 kPa, Liquid, Pycnometric method, x1 = 0.8336 | 1279.66
374.97 K, 21566 kPa, Liquid, Pycnometric method, x1 = 0.8336 | 1310.86
374.97 K, 27844 kPa, Liquid, Pycnometric method, x1 = 0.8336 | 1332.88
374.97 K, 35188 kPa, Liquid, Pycnometric method, x1 = 0.8336 | 1355.43
374.97 K, 42212 kPa, Liquid, Pycnometric method, x1 = 0.8336 | 1374.59
374.97 K, 48936 kPa, Liquid, Pycnometric method, x1 = 0.8336 | 1391.15
374.97 K, 56118 kPa, Liquid, Pycnometric method, x1 = 0.8336 | 1407.35
374.97 K, 63201 kPa, Liquid, Pycnometric method, x1 = 0.8336 | 1422.2
374.97 K, 67438 kPa, Liquid, Pycnometric method, x1 = 0.8336 | 1430.6
374.98 K, 99.9 kPa, Fluid (supercritical or subcritical phases), Burnett expansion method, x1 = 0.832 | 4.192
374.98 K, 100.73 kPa, Fluid (supercritical or subcritical phases), Burnett expansion method, x1 = 0.832 | 4.2353
374.98 K, 141.34 kPa, Fluid (supercritical or subcritical phases), Burnett expansion method, x1 = 0.832 | 5.9685
374.98 K, 195.81 kPa, Fluid (supercritical or subcritical phases), Burnett expansion method, x1 = 0.832 | 8.3248
374.98 K, 197.47 kPa, Fluid (supercritical or subcritical phases), Burnett expansion method, x1 = 0.832 | 8.4097
374.98 K, 216.98 kPa, Fluid (supercritical or subcritical phases), Burnett expansion method, x1 = 0.832 | 9.2699
374.98 K, 272.55 kPa, Fluid (supercritical or subcritical phases), Burnett expansion method, x1 = 0.832 | 11.7304
374.98 K, 275.03 kPa, Fluid (supercritical or subcritical phases), Burnett expansion method, x1 = 0.832 | 11.8505
374.98 K, 301.92 kPa, Fluid (supercritical or subcritical phases), Burnett expansion method, x1 = 0.832 | 13.0615
374.98 K, 377.56 kPa, Fluid (supercritical or subcritical phases), Burnett expansion method, x1 = 0.832 | 16.5279
374.98 K, 381 kPa, Fluid (supercritical or subcritical phases), Burnett expansion method, x1 = 0.832 | 16.6977
374.98 K, 417.41 kPa, Fluid (supercritical or subcritical phases), Burnett expansion method, x1 = 0.832 | 18.4053
374.98 K, 518.62 kPa, Fluid (supercritical or subcritical phases), Burnett expansion method, x1 = 0.832 | 23.2877
374.98 K, 523.72 kPa, Fluid (supercritical or subcritical phases), Burnett expansion method, x1 = 0.832 | 23.528
374.98 K, 569 kPa, Gas, isochoric method, x1 = 0.832 | 201.277
374.98 K, 1592.7 kPa, Liquid, Pycnometric method, x1 = 0.8336 | 1204.96
374.98 K, 1802 kPa, Liquid, Pycnometric method, x1 = 0.8336 | 1206.68
374.98 K, 3500.8 kPa, Liquid, Pycnometric method, x1 = 0.8336 | 1219.67
374.98 K, 7519.3 kPa, Liquid, Pycnometric method, x1 = 0.8336 | 1245.72
375.98 K, 3481.1 kPa, Liquid, isochoric method, x1 = 0.832 | 1216.37
375.98 K, 3481.3 kPa, Liquid, isochoric method, x1 = 0.832 | 1216.37
380.97 K, 5662.2 kPa, Liquid, isochoric method, x1 = 0.832 | 1216.02
385.97 K, 7843.6 kPa, Liquid, isochoric method, x1 = 0.832 | 1215.66
385.97 K, 7845.9 kPa, Liquid, isochoric method, x1 = 0.832 | 1215.66
389.97 K, 399.7 kPa, Gas, isochoric method, x1 = 0.832 | 131.569
389.97 K, 864.3 kPa, Gas, isochoric method, x1 = 0.832 | 304.496
399.96 K, 7536.5 kPa, Liquid, Pycnometric method, x1 = 0.8336 | 1168.49
399.96 K, 49152 kPa, Liquid, Pycnometric method, x1 = 0.8336 | 1348.85
399.97 K, 617 kPa, Gas, isochoric method, x1 = 0.832 | 201.042
399.97 K, 3101 kPa, Liquid, Pycnometric method, x1 = 0.8336 | 1123.2
399.97 K, 3459.9 kPa, Liquid, Pycnometric method, x1 = 0.8336 | 1127.62
399.97 K, 3838.5 kPa, Liquid, Pycnometric method, x1 = 0.8336 | 1132.14
399.97 K, 5333.9 kPa, Liquid, Pycnometric method, x1 = 0.8336 | 1148.2
399.97 K, 14526 kPa, Liquid, Pycnometric method, x1 = 0.8336 | 1217.33
399.97 K, 21523 kPa, Liquid, Pycnometric method, x1 = 0.8336 | 1253.75
399.97 K, 28491 kPa, Liquid, Pycnometric method, x1 = 0.8336 | 1283.14
399.97 K, 35354 kPa, Liquid, Pycnometric method, x1 = 0.8336 | 1307.71
399.97 K, 56281 kPa, Liquid, Pycnometric method, x1 = 0.8336 | 1366.92
399.97 K, 63214 kPa, Liquid, Pycnometric method, x1 = 0.8336 | 1383.07
399.98 K, 2379 kPa, Liquid, Pycnometric method, x1 = 0.8336 | 1111.44
399.98 K, 2438.9 kPa, Liquid, Pycnometric method, x1 = 0.8336 | 1114.58
399.98 K, 2791.2 kPa, Liquid, Pycnometric method, x1 = 0.8336 | 1119.29
399.98 K, 41888 kPa, Liquid, Pycnometric method, x1 = 0.8336 | 1328.37
404.97 K, 909.7 kPa, Gas, isochoric method, x1 = 0.832 | 304.283
404.97 K, 1209.7 kPa, Gas, isochoric method, x1 = 0.832 | 426.452
409.97 K, 5121.7 kPa, Liquid, isochoric method, x1 = 0.832 | 1111.12
414.97 K, 1254.6 kPa, Gas, isochoric method, x1 = 0.832 | 426.252
414.97 K, 1558.2 kPa, Gas, isochoric method, x1 = 0.832 | 556.482
415.97 K, 7015.9 kPa, Liquid, isochoric method, x1 = 0.832 | 1110.75
419.96 K, 1587.9 kPa, Gas, isochoric method, x1 = 0.832 | 556.352
421.97 K, 8915.8 kPa, Liquid, isochoric method, x1 = 0.832 | 1110.38
424.96 K, 76.05 kPa, Fluid (supercritical or subcritical phases), Burnett expansion method, x1 = 0.832 | 2.7936
424.96 K, 106.8 kPa, Fluid (supercritical or subcritical phases), Burnett expansion method, x1 = 0.832 | 3.939
424.96 K, 136.17 kPa, Fluid (supercritical or subcritical phases), Burnett expansion method, x1 = 0.832 | 5.049
424.96 K, 191.33 kPa, Fluid (supercritical or subcritical phases), Burnett expansion method, x1 = 0.832 | 7.117
424.96 K, 210.5 kPa, Fluid (supercritical or subcritical phases), Burnett expansion method, x1 = 0.832 | 7.8282
424.96 K, 268.07 kPa, Fluid (supercritical or subcritical phases), Burnett expansion method, x1 = 0.832 | 10.034
